Measured values as given in PMC6017062, “Probing the Inhibitor versus Chaperone Properties of sp^2-Iminosugars towards Human β-Glucocerebrosidase: A Picomolar Chaperone for Gaucher Disease” (Molecules : A Journal of Synthetic Chemistry and Natural …, 2018).

What was measured:
Type in all cases: biochemical
Details in all cases: mean ± SD, three determinations; competitive; n.i. = no inhibition detected at 1 mM
[1] = target: β-glucosidase from almonds (β-Glcase1); experiment: Commercial glycosidase inhibition: β-glucosidase from almonds (β-Glcase1)
Excerpt: (§1) We first evaluated the inhibitory properties of the new nonreducing mono- and bicyclic sp^2-iminosugars 4–15 against a panel of commercial glycosidases that included the α-glucosidases maltase (yeast maltase; α-Glcase1) and isomaltase (α-Glcase2) from Saccharomyces cerevisiae and amyloglucosidase (α-Glcase3) from Aspergillus niger, the β-glucosidases from almonds (β-Glcase1) and bovine liver (β-Glcase2), the α-galactosidase from green coffee beans (α-Galase), the β-galactosidase from Escherichia coli (β-Galase), and the α-mannosidase from Jack bean (α-Manase).
(§2) Inhibition constant (Ki) values were determined by spectrophotometrically measuring the residual hydrolytic activities of the glycosidases against the respective o- (for β-galactosidase from E. coli) or p-nitrophenyl α- or β-D-glycopyranoside (for other glycosidases) in the presence of the iminosugars. Each assay was performed in phosphate buffer or phosphate-citrate buffer (for α- or β-mannosidase and amyloglucosidase) at the optimal pH for the enzymes. The reactions were initiated by addition of the enzyme to a solution of the substrate in the absence or presence of various inhibitor concentrations. The mixture was incubated for 10–30 min at 37 °C or 55 °C (for amyloglucosidase) and the reaction was quenched by addition of 1 M Na2CO3. Reaction times were appropriate to obtain 10–20% conversion of the substrate in order to achieve linear rates. The absorbance of the resulting mixture was determined at 405 nm. Approximate value of Ki was determined from the slope of Dixon plots using a fixed concentration of substrate (around the Km value for the different glycosidases) and various concentrations of inhibitor. Full Ki determinations and enzyme inhibition mode were determined from the slope of Lineweaver–Burk plots and double reciprocal analysis.

[2] = target: T1, α-galactosidase from green coffee beans (α-Galase) (Coffea arabica, UniProt Q42656); experiment: Commercial glycosidase inhibition: α-galactosidase from green coffee beans (α-Galase)
T1 construct: purchased
T1 sequence (Q42656 16-378): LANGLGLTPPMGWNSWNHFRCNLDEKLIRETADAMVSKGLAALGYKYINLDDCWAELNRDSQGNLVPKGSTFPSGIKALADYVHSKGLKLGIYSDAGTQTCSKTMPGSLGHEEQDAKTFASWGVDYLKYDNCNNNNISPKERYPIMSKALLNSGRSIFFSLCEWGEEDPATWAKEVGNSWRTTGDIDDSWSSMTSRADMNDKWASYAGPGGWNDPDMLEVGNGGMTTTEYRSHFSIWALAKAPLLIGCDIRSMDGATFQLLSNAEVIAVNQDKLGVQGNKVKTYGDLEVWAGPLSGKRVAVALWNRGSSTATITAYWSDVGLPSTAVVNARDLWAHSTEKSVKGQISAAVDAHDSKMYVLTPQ
Excerpt: as §1, §2

[3] = target: T2, β-galactosidase (β-Galase) (Escherichia coli, UniProt P00722); experiment: Commercial glycosidase inhibition: β-galactosidase from E. coli (β-Galase)
T2 construct: purchased
T2 sequence (P00722 2-1024 limits assumed): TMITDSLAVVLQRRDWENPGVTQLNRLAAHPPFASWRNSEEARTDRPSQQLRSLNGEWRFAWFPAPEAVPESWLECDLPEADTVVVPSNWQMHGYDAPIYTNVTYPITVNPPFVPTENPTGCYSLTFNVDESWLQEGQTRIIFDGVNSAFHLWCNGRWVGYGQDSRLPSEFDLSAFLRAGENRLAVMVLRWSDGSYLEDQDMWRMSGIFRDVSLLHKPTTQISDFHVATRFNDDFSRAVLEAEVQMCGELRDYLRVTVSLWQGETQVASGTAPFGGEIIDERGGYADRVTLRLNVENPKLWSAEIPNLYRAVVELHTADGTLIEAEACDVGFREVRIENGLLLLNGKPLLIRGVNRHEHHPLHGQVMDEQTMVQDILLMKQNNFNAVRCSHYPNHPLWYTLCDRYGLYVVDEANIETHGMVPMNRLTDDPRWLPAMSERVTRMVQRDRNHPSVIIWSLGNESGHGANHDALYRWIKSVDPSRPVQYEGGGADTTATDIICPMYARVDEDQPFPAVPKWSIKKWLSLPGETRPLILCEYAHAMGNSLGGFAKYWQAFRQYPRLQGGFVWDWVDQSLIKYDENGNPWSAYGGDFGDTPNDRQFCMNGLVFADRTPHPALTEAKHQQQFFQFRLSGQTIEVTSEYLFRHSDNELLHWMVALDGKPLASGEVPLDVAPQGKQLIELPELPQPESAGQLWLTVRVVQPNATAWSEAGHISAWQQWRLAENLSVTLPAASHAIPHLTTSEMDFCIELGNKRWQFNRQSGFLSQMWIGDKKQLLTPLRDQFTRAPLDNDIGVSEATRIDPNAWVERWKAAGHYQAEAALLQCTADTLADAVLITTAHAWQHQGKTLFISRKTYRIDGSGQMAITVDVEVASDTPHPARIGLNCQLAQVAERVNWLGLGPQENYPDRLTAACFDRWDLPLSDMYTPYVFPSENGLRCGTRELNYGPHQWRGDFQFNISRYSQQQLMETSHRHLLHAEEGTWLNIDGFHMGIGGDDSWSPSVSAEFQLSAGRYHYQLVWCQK
Excerpt: as §1, §2

[4] = target: T3, amyloglucosidase (α-Glcase3) (Aspergillus niger, UniProt P69328); experiment: Commercial glycosidase inhibition: amyloglucosidase (α-Glcase3)
T3 construct: purchased
T3 sequence (P69328 25-640): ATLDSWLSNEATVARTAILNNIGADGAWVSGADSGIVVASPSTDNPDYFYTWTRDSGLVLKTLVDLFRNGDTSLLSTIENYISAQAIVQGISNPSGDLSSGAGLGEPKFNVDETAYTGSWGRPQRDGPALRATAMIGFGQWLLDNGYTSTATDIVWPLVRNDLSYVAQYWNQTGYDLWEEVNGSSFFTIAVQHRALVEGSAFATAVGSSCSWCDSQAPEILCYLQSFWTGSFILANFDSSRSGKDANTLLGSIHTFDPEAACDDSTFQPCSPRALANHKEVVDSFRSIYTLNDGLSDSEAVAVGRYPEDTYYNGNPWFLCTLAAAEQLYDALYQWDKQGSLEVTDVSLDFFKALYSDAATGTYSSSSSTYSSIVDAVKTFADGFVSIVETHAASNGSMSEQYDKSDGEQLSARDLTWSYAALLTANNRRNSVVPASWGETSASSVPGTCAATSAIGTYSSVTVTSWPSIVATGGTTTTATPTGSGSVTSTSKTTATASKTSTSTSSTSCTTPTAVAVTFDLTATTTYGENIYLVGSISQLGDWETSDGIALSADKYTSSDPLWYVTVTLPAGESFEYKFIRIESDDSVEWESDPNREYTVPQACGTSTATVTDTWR
Excerpt: as §1, §2

[5] = target: T4, α-mannosidase from Jack bean (α-Manase) (Canavalia ensiformis, UniProt C0HJB3); experiment: Commercial glycosidase inhibition: α-mannosidase from Jack bean (α-Manase)
T4 construct: purchased
T4 sequence (C0HJB3 1-981): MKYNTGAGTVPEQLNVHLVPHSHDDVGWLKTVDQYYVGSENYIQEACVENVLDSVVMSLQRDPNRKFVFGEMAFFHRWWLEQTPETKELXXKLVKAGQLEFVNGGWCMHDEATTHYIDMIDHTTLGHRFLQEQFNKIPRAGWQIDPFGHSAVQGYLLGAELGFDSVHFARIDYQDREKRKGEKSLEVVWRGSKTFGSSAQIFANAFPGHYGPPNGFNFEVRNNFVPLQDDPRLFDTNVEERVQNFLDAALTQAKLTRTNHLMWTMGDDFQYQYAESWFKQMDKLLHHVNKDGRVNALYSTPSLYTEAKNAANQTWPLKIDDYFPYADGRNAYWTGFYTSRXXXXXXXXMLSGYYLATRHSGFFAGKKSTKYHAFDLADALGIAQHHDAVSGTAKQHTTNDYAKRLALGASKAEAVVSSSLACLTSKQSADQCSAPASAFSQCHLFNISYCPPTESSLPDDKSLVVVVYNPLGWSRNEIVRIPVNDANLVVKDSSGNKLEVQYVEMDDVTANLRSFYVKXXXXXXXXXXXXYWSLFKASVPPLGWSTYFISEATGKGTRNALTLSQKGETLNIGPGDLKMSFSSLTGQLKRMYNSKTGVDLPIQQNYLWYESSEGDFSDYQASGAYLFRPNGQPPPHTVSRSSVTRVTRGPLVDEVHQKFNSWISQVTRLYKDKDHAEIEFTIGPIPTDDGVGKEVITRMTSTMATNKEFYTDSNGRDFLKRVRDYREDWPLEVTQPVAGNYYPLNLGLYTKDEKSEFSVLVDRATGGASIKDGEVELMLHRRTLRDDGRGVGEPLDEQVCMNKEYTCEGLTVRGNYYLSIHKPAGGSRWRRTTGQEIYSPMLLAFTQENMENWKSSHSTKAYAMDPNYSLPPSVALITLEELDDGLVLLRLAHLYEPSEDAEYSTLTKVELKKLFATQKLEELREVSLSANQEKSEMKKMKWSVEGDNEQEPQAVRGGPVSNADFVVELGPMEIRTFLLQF
Excerpt: as §1, §2

CCCCCCCCN=C1SCC2C(O)C(O)C(O)CN12 (stereo not drawn) [Compound 4, 1-Deoxy-6-thio-5-N,6-S-(N′-octyliminomethylidene)nojirimycin]
Ki [1]: 0.045 µM | Ki α-Galase [2]: n.i. | Ki β-Galase [3]: n.i. | Ki α-Glcase3 [4]: n.i. | Ki α-Manase [5]: n.i.
